Some test systems named below: SK-MEL-5; SF-295; NCI-H23; ACHN; KM12; SK-MEL-2; K562; RXF 393; SK-MEL-28; DU-145; NCI-H460; HCC 2998; OVCAR-4; SF-268; IGROV-1; HOP-62.
Assay in all cases: inhibition of tumour cell growth, NCI panel, 48 h

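Five concentrations, 48 hours, 96-well plates. The concentration for 50% growth inhibition is given as GI50.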 Calls of active or inactive are those of the source. Rule as the data show it: active = GI50 up to about 1.1 µM and inactive = higher. Square brackets hold non-standard residues; d marks the D form. Peptide text beside a SMILES is read from it.

14 compounds from ChEMBL document CHEMBL1201862, “PubChem BioAssay data set” (2004) can be followed below.

On to `O=C(CN1C(=O)c2ccccc2C1=O)OCC1CCCN2CCCCC12` (centres undefined), for which the GI50 with SK-MEL-5, in the experiment on SF-295, in the experiment with NCI-H23, in the experiment with ACHN, with KM12 and in the experiment on SK-MEL-2 was > 100 µM (inactive) each time. Moreover, the GI50 with K562, with RXF 393, in the experiment on SK-MEL-28, in the experiment on DU-145, in the experiment with NCI-H460 and in the experiment with HCC 2998 was > 100 µM (inactive) each time. Further, the GI50 in the experiment with OVCAR-4 and in the experiment on SF-268 was > 100 µM (inactive) in each case.

In the case of `N=C(N)NCCC[C@H]1NC(=O)[C@@H](CCC(=O)O)NC(=O)[C@@H](CC(=O)O)NC(=O)[C@@H](CCC(=O)O)NC(=O)[C@H](Cc2c[nH]c3ccccc23)NC1=O` (cyclo(W[dE][dD][dE][dR])), the GI50 was > 7.5 µM (inactive) in the experiment with SK-MEL-5; > 7.5 µM (inactive) in the experiment on SF-295; > 7.5 µM (inactive) in the experiment with NCI-H23; > 7.5 µM (inactive) in the experiment with ACHN; > 7.5 µM (inactive) in the experiment with KM12; 0.191 µM (active) in the experiment on SK-MEL-2. The GI50 in the experiment on K562, with RXF 393, in the experiment on DU-145, with NCI-H460, in the experiment on HCC 2998 and in the experiment on OVCAR-4 was > 7.5 µM (inactive) each time. The GI50 with IGROV-1, in the experiment on SF-268 and in the experiment with HOP-62 was > 7.5 µM (inactive) each time.

Consider `COc1ccc(Cc2ccc3nc(O)cc(C)c3c2)cc1S(=O)(=O)O`, for which the GI50 in the experiment with SK-MEL-5, with SF-295, in the experiment with NCI-H23, in the experiment with ACHN, in the experiment with KM12 and in the experiment on SK-MEL-2 was > 100 µM (inactive) throughout. The GI50 with K562, in the experiment with RXF 393, in the experiment with SK-MEL-28, in the experiment with DU-145, with NCI-H460 and in the experiment on OVCAR-4 was > 100 µM (inactive) in each case. Further, the GI50 in the experiment on IGROV-1, in the experiment on SF-268 and with HOP-62 was > 100 µM (inactive) in each case.

With `Cc1cc(O)c(C(O)c2ccccn2)cc1O` (centres undefined), the GI50 in the experiment with SK-MEL-5 is 23.2 µM (inactive); with SF-295 it was > 100 µM (inactive); in the experiment on NCI-H23, 18 µM (inactive); in the experiment on ACHN, 6.01 µM (inactive); in the experiment on KM12 it was 24.5 µM (inactive); with K562, 3.77 µM (inactive). Further, the GI50 in the experiment with RXF 393 was 16.3 µM (inactive); in the experiment on SK-MEL-28 it was 18.7 µM (inactive); in the experiment on DU-145, 37.9 µM (inactive); in the experiment on NCI-H460, 49.2 µM (inactive); in the experiment with HCC 2998 it was 21.3 µM (inactive); with IGROV-1, 35.8 µM (inactive). Moreover, the GI50 was 75.7 µM (inactive) in the experiment with SF-268 and 89.1 µM (inactive) in the experiment on HOP-62.

In the case of `c1ccc2c(c1)ccc1nc3ccccn3c12`, the GI50 with SK-MEL-5 was 89.7 µM (inactive); in the experiment with SF-295, > 100 µM (inactive); in the experiment with NCI-H23, > 100 µM (inactive); in the experiment with ACHN it was > 100 µM (inactive); in the experiment with KM12 it was > 100 µM (inactive); in the experiment on K562, > 100 µM (inactive). Moreover, the GI50 with RXF 393, with SK-MEL-28, in the experiment on DU-145, in the experiment with NCI-H460, with HCC 2998 and in the experiment on IGROV-1 was > 100 µM (inactive) each time. Besides, the GI50 in the experiment with SF-268 and with HOP-62 was > 100 µM (inactive) each time.

As to `CNN1C(=O)c2c(N)c(C#N)c(-c3ccccc3)c(-c3ccccc3)c2C1=O`, the GI50 in the experiment with SK-MEL-5 was 62.4 µM (inactive); in the experiment with SF-295 it was 73.5 µM (inactive); in the experiment with ACHN it was > 100 µM (inactive); in the experiment on KM12, 86.9 µM (inactive); in the experiment with SK-MEL-2 it was > 100 µM (inactive); in the experiment on K562 it was 48.9 µM (inactive). Moreover, the GI50 with RXF 393 was 82.8 µM (inactive); in the experiment on SK-MEL-28, > 100 µM (inactive); in the experiment on DU-145, > 100 µM (inactive); in the experiment on NCI-H460, 71.6 µM (inactive); in the experiment with HCC 2998, > 100 µM (inactive); in the experiment on OVCAR-4 it was > 100 µM (inactive). In addition, the GI50 with IGROV-1 was 48.9 µM (inactive); in the experiment with SF-268, > 100 µM (inactive).

`COC(=O)c1c(O)ccc2c1c1c(n2CCc2ccccc2)C(=O)c2ccccc2C1`: the GI50 was 17.6 µM (inactive) with SK-MEL-5; 20.7 µM (inactive) with NCI-H23; 31.8 µM (inactive) in the experiment with KM12; 15.8 µM (inactive) in the experiment on SK-MEL-2; 37.6 µM (inactive) in the experiment on K562; 13.3 µM (inactive) in the experiment with RXF 393. The GI50 in the experiment on SK-MEL-28 was 19.5 µM (inactive); in the experiment on DU-145 it was 31.8 µM (inactive); in the experiment on NCI-H460, 16.7 µM (inactive); in the experiment on OVCAR-4 it was 10.7 µM (inactive); in the experiment with IGROV-1 it was 19.6 µM (inactive); with SF-268 it was 13.7 µM (inactive). Besides, the GI50 in the experiment with HOP-62 is 21.2 µM (inactive).

Regarding `O=[N+]([O-])c1ccc2sc(/C=N/c3ccccn3)cc2c1`, the GI50 is > 100 µM (inactive) in the experiment on SK-MEL-5; 82.8 µM (inactive) with SF-295; 98.2 µM (inactive) in the experiment on NCI-H23; 98.6 µM (inactive) in the experiment on ACHN; 64.6 µM (inactive) in the experiment with KM12; > 100 µM (inactive) with SK-MEL-2. The GI50 in the experiment with K562 was 26.8 µM (inactive); in the experiment on RXF 393, > 100 µM (inactive); in the experiment with SK-MEL-28, > 100 µM (inactive); with DU-145, 77.6 µM (inactive); with NCI-H460, > 100 µM (inactive); in the experiment with HCC 2998, > 100 µM (inactive). For the same compound, the figures for the GI50 in the experiment on IGROV-1, with SF-268 and in the experiment on HOP-62 were 60.4 µM (inactive), 28.5 µM (inactive) and > 100 µM (inactive), respectively.

On to `O=C1/C(=C/c2ccco2)N=C2Sc3c([nH]cnc3=O)N12`, for which the GI50 in the experiment on SK-MEL-5, in the experiment with SF-295, with NCI-H23, in the experiment with ACHN, with KM12 and in the experiment on SK-MEL-2 was > 100 µM (inactive) throughout. Moreover, the GI50 with K562 is > 100 µM (inactive); in the experiment with RXF 393, > 100 µM (inactive); in the experiment on SK-MEL-28, > 100 µM (inactive); in the experiment on DU-145, > 100 µM (inactive); in the experiment on OVCAR-4 it was 44.4 µM (inactive); with IGROV-1, > 100 µM (inactive). Further, the GI50 in the experiment with SF-268 and with HOP-62 was > 100 µM (inactive) each time.

With `Nc1nc(N)c(Cn2ccnc2)c(O)n1`, the GI50 with SK-MEL-5, in the experiment with SF-295, with NCI-H23, in the experiment with ACHN, in the experiment with KM12 and in the experiment with SK-MEL-2 was > 100 µM (inactive) each time. Moreover, the GI50 in the experiment with K562 was 0.049 µM (active); in the experiment with RXF 393 it was > 100 µM (inactive); in the experiment with DU-145, > 100 µM (inactive); in the experiment on NCI-H460, > 100 µM (inactive); with OVCAR-4 it was > 100 µM (inactive); with IGROV-1 it was > 100 µM (inactive). In addition, the GI50 in the experiment on SF-268 and in the experiment on HOP-62 was > 100 µM (inactive) in each case.

Take `COc1cc2c(cc1OC)CC(=O)c1cc(OC)c(OC)cc1/C=C\2`: the GI50 was 7.74 µM (inactive) in the experiment with SK-MEL-5; 7.16 µM (inactive) with SF-295; > 12.5 µM (inactive) with NCI-H23; > 12.5 µM (inactive) in the experiment on ACHN; 4.55 µM (inactive) with KM12; > 12.5 µM (inactive) in the experiment with SK-MEL-2. Also, the GI50 is 3.45 µM (inactive) with K562; > 12.5 µM (inactive) in the experiment on RXF 393; > 12.5 µM (inactive) in the experiment on SK-MEL-28; > 12.5 µM (inactive) in the experiment with DU-145; > 12.5 µM (inactive) in the experiment with NCI-H460; > 12.5 µM (inactive) in the experiment on OVCAR-4. Besides, the values for the GI50 in the experiment on IGROV-1, in the experiment with SF-268 and in the experiment on HOP-62 were 10.8 µM (inactive), > 12.5 µM (inactive) and > 12.5 µM (inactive), respectively.

In the case of `O=[N+]([O-])/C=C/COCc1cc2c(cc1Br)OCO2`, the GI50 with SK-MEL-5 was 20.2 µM (inactive); with SF-295, 36.8 µM (inactive); in the experiment with ACHN, 16.4 µM (inactive); in the experiment with KM12, 19 µM (inactive); with K562, 58.2 µM (inactive); in the experiment with RXF 393, 16.7 µM (inactive). The GI50 with SK-MEL-28 was 11.6 µM (inactive); with DU-145 it was 18.9 µM (inactive); in the experiment with NCI-H460, 29.9 µM (inactive); in the experiment on HCC 2998 it was 16.7 µM (inactive); in the experiment on OVCAR-4, 18.6 µM (inactive); in the experiment on IGROV-1, 29.8 µM (inactive). Also, the GI50 in the experiment on SF-268 was 19.1 µM (inactive); in the experiment on HOP-62, 20.1 µM (inactive).

Take `O=[N+]([O-])c1ccc(Cl)c(CNc2ncnc3c2ncn3C2CCCCO2)c1` (centres undefined): the GI50 in the experiment with SK-MEL-5 was 21.7 µM (inactive); in the experiment with SF-295 it was 52 µM (inactive); in the experiment with NCI-H23, 31.8 µM (inactive); in the experiment with ACHN, 44.9 µM (inactive); in the experiment on KM12, 66.7 µM (inactive); with SK-MEL-2, 28.5 µM (inactive). Moreover, the GI50 is 31.4 µM (inactive) with K562; 14.9 µM (inactive) in the experiment on RXF 393; 89.5 µM (inactive) in the experiment with SK-MEL-28; 29.1 µM (inactive) in the experiment with DU-145; 15.3 µM (inactive) in the experiment on NCI-H460; 54.1 µM (inactive) in the experiment on OVCAR-4. Further, the GI50 is 58.2 µM (inactive) with IGROV-1, 97.9 µM (inactive) in the experiment with SF-268 and 48.4 µM (inactive) in the experiment on HOP-62.

On to `N#CC1=C(N)OC(c2cccc([N+](=O)[O-])c2)C1(C#N)C#N` (centres undefined), for which the GI50 with SK-MEL-5 is 18 µM (inactive); in the experiment on SF-295, 26.5 µM (inactive); in the experiment on NCI-H23, 21.2 µM (inactive); in the experiment on ACHN it was 18.2 µM (inactive); in the experiment with KM12, > 10 µM (inactive); with SK-MEL-2, 21.3 µM (inactive). The GI50 in the experiment on K562 is 26.2 µM (inactive); with RXF 393, 20 µM (inactive); in the experiment on DU-145 it was 17.3 µM (inactive); in the experiment with HCC 2998 it was 20.9 µM (inactive); in the experiment on IGROV-1, 17.6 µM (inactive); in the experiment on SF-268, 26.5 µM (inactive). The GI50 in the experiment with HOP-62 is 18.9 µM (inactive).
